Experimental data taken from PMC13042316 (Open journal of immunology, 2011).

Target: recombinant human MBL (mannose-binding lectin) (Homo sapiens, UniProt P11226)
Assay: ELISA, inhibition of MBL binding to immobilised mannan

Chain of recombinant human MBL (mannose-binding lectin) (P11226 21-248): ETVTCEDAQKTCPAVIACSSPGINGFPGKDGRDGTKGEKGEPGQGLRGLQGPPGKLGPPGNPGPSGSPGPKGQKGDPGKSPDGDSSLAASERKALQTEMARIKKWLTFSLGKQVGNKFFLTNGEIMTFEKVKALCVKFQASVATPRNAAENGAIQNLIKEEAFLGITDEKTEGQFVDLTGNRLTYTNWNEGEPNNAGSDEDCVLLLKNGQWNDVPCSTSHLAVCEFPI

OC[C@H]1O[C@@](CO)(O[C@H]2O[C@H](CO)[C@@H](O)[C@H](O)[C@H]2O)[C@@H](O)[C@@H]1O [sucrose]
IC50: > 11 mM
